Experimental findings from patent US20020169175A1, “Pharmaceutically acceptable salts of heterocyclic compounds” (DR. REDDY'S LABORATORIES LTD., priority 2001, published 2002) are described below.

Structures can show the parent of a compound that is named as a salt.

The target of one series is T1, hPPARα (Homo sapiens, UniProt Q07869).
T1 construct: expressed in transfected cells; host or cells: HEK-293
T1 sequence (Q07869 239-466 limits assumed): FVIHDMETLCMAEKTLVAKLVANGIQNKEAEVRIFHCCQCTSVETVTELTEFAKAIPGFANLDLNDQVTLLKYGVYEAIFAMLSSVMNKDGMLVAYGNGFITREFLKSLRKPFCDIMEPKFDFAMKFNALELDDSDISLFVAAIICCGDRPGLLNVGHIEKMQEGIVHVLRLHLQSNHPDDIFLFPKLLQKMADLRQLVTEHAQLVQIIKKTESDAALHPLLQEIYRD
Kind of series: Determination of hPPARα activity (GAL4 fusion luciferase reporter in transfected HEK-293 cells). It counts as cell-based. The note with it: compound concentration 50 μM. The protocol:
a) Determination of hPPARα Activity
Ligand binding domain of hPPARα was fused to DNA binding domain of Yeast transcription factor GAL4 in eucaryotic expression vector. Using superfect (Qiagen, Germany) as transfecting reagent HEK-293 cells were transfected with this plasmid and a reporter plasmid harboring the luciferase gene driven by a GAL4 specific promoter. Compound was added at different concentrations after 42 hrs of transfection and incubated overnight. Luciferase activity as a function of compound binding/activation capacity of PPARα was measured using Packard Luclite kit (Packard, USA) in Top Count (Ivan Sadowski, Brendan Bell, Peter Broag and Melvyn Hollis. Gene. 1992. 118: 137-141; Superfect Transfection Reagent Handbook. February 1997. Qiagen, Germany).
(In general: In a reporter assay the amount or activity of a reporter protein is the signal.)

The next series relates to Swiss albino mice. Kind of series: Plasma triglyceride and total cholesterol lowering activity in Swiss albino mice and Guinea pigs. Particulars: oral, 6 days. The series is classed as in vivo, mouse. Here is the method: c) Plasma Triglyceride and Total Cholesterol Lowering Activity in Swiss Albino Mice and Guinea Pigs
Male Swiss albino mice (SAM) and male Guinea pigs were obtained from NIN and housed in DRF animal house. All these animals were maintained under 12 hour light and dark cycle at 25±1° C. Animals were given standard laboratory chow (NIN Hyderabad, India) and water, ad libitum. SAM of 20-25 g body weight range and Guinea pigs of 500-700 g body weight range were used (Oliver, P., Plancke, M. O., Marzin, D., Clavey, V., Sauzieres, J and Fruchart, J. C. Effects of fenofibrate, gemfibrozil and nicotinic acid on plasma lipoprotein levels in normal and hyperlipidemic mice. Atherosclerosis. 1988. 70: 107-114).
The test compounds were administered orally to Swiss albino mice at 0.3 to 30 mg/kg/day dose for 6 days. Control mice were treated with vehicle (0.25% Carboxymethylcellulose; dose 10 ml/kg). The test compounds were administered orally to Guinea pigs at 0.3 to 30 mg/kg/day dose for 6 days. Control animals were treated with vehicle (0.25% Carboxymethylcellulose; dose 5 ml/kg).
The blood samples were collected in fed state 1 hour after drug administration on 0 and 6 day of treatment. The blood was collected from the retro-orbital sinus through heparinised capillary in EDTA containing tubes. After centrifugation, plasma sample was separated for triglyceride and total cholesterol (Wieland, O. Methods of Enzymatic analysis. Bergermeyer, H. O., Ed., 1963. 211-214; Trinder, P. Ann. Clin. Biochem. 1969. 6: 24-27). Measurement of plasma triglyceride, total cholesterol and HDL were done using commercial kits (Dr. Reddy's Diagnostic Division, Hyderabad, India).
(§1) 1. Percent reduction in Blood sugar/triglycerides/total cholesterol were calculated according to the formula: [formula]

In a further series the target is T2, hPPARγ1 (Homo sapiens, UniProt P37231).
T2 construct: expressed in transfected cells; host or cells: HEK-293
T2 sequence (P37231 238-503 limits assumed): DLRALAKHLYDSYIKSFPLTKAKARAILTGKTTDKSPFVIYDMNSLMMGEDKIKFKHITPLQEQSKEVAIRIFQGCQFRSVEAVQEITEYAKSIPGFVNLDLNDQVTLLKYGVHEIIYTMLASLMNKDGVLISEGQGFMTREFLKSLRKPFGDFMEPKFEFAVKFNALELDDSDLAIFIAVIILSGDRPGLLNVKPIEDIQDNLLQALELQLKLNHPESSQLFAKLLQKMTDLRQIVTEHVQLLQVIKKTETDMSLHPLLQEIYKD
Kind of series: Determination of hPPARγ activity (GAL4 fusion luciferase reporter in transfected HEK-293 cells). It counts as cell-based. Particulars: compound concentration 1 μM. The protocol:
b) Determination of hPPARγ Activity
Ligand binding domain of hPPARγ1 was fused to DNA binding domain of Yeast transcription factor GAL4 in eucaryotic expression vector. Using lipofectamine (Gibco BRL, USA) as transfecting reagent HEK-293 cells were transfected with this plasmid and a reporter plasmid harboring the luciferase gene driven by a GAL4 specific promoter. Compound was added at 1 μM concentration after 48 hrs of transfection and incubated overnight. Luciferase activity as a function of drug binding/activation capacity of PPARγ1 was measured using Packard Luclite kit (Packard, USA) in Packard Top Count (Ivan Sadowski, Brendan Bell, Peter Broag and Melvyn Hollis. Gene. 1992. 118: 137-141; Guide to Eukaryotic Transfections with Cationic Lipid Reagents. Life Technologies, GIBCO BRL, USA).

In the next series the test system is C57BL/KsJ-db/db mice. Kind of series: Efficacy in genetic models: blood sugar lowering in db/db mice. It counts as in vivo, mouse. Particulars: 0.1 mg/kg oral gavage daily for 6 days.
Text: a) Efficacy in Genetic Models
Mutation in colonies of laboratory animals and different sensitivities to dietary regimens have made the development of animal models with non-insulin dependent diabetes and hyperlipidemia associated with obesity and insulin resistance possible. Genetic models such as db/db and ob/ob (Diabetes, (1982) 31(1): 1-6) mice and zucker fa/fa rats have been developed by the various laboratories for understanding the pathophysiology of disease and testing the efficacy of new antidiabetic compounds (Diabetes, (1983) 32: 830-838; Annu. Rep. Sankyo Res. Lab. (1994). 46: 1-57). […]
The random blood sugar and triglyceride levels were measured by collecting blood (100 μl) through orbital sinus, using heparinised capillary in tubes containing EDTA which was centrifuged to obtain plasma. The plasma glucose and triglyceride levels were measured spectrometrically, by glucose oxidase and glycerol-3-PO4 oxidase/peroxidase enzyme (Dr. Reddy's Lab. Diagnostic Division Kits, Hyderabad, India) methods respectively.
The blood sugar and triglycerides lowering activities of the test compound was calculated according to the formula.
as §1

A short description of series [1]: Single dose oral pharmacokinetic studies in male Wistar rats. It counts as in vivo, rat. Particulars: fasted, suspension in 0.25% sodium CMC. The protocol: Single Dose Oral Pharmacokinetic Studies
Male Wistar rats (220-250 gm) were used in the experiments. The animals were maintained under standard laboratory conditions and had free access to feed and water ad libitum. Before experimentation animals were fasted overnight (˜15 h) during which they had free access to water ad libitum.
An amount equivalent to 30 mg of drug was weighed accurately and transferred into a clean mortar and triturated to obtain a fine powder. To this 0.5 ml of 0.25% sodium carboxy methyl cellulose (sodium CMC) was added to obtain a paste. To the obtained paste remaining 2.5 ml of sodium CMC was added to make up the volume to 3 ml. Based on the animal weight appropriate volume (body weight×3) of the prepared suspension was administered through oral gavage.
After dosing, at designated time points (0.5, 1, 2, 3, 5, 8, 12 and 24 h) 200 μl of blood was collected from retro orbital plexus into 0.5 ml eppendorff tubes containing EDTA (10 μl of 200 mg/ml solution in Milli Q water). Blood was centrifuged at 12,800 rpm for 5 min and obtained plasma and stored at −20° C. till further analysis.
100μl plasma was transferred into a clean and dry centrifuge tube. To this internal standard (10 μl of 100 μg/ml) was added and extracted with 2 ml of extraction recovery solvent. The contents were vortexed for 2 min, followed by centrifugation for 10 min at 2800 rpm. Clear organic layer (2×0.75 ml) was separated and dried under nitrogen gas at 50° C. The residue was reconstituted with 150 μl of mobile phase and vortexed for 20 sec, from this 50 μl was injected onto HPLC column.
Pharmacokinetic parameters were calculated by non-compartmental model analysis. The peak plasma concentration (Cmax) and the corresponding time (Tmax)were directly obtained from the raw data. The area under the plasma concentration versus time curve up to the last quantifiable time point, AUC(0−t) was obtained by the linear and log-linear trapezoidal summation. The AUC(0−t) extrapolated to infinity (i.e., AUC(0−∞)) by adding the quotient of Clast/Kel, where Clast represents the last measurable time concentration and Kel represents the apparent terminal rate constant. Kel was calculated by the linear regression of the log-transformed concentrations of the drug in the terminal phase. The half-life of the terminal elimination phase was obtained using the relationship t½=0.693/Kel.

On to `CCCc1nn(C)c2c(=O)n(CCOc3ccc(C[C@H](OCC)C(=O)O)cc3)c(CC)nc12` [Example 44, (−)-3-[4-[2-(1-Methyl-5-ethyl-7-oxo-3-propyl-6,7-dihydro-1H-pyrazolo[4,3-d]pyrimidin-6-yl)ethoxy]phenyl]-2-ethoxypropionic acid metformin salt], for which, on hPPARα, the PPARα is listed as 2.5. Also, the “Triglyceride Lowering (%)” value with Swiss albino mice (dose 3 mg/kg) is on record as 80%.
`CCO[C@@H](Cc1ccc(OCCn2c(CC)nc3ccccc3c2=O)cc1)C(=O)O` [Example 11, (−)-3-[4-[2-(2-Ethyl-4-oxo-3,4-dihydroquinazolin-3-yl)ethoxy]phenyl]-2-ethoxypropanoic acid arginine salt]: at hPPARα, the PPARα turned out to be 13.8. Moreover, the PPARγ on hPPARγ1 is 27.0. Also, the “Reduction in Blood Glucose Level (%)” value in the series with C57BL/KsJ-db/db mice is 61%. Also, the “Triglyceride Lowering (%)” value in the series on Swiss albino mice (dose 0.3 mg/kg) worked out at 58%.
With `CCCc1nn(C)c2c(=O)n(CCOc3ccc(CC(OCC)C(=O)[O-])cc3)c(CC)nc12.CCCc1nn(C)c2c(=O)n(CCOc3ccc(CC(OCC)C(=O)[O-])cc3)c(CC)nc12.[Mg+2]` (single isomer, unassigned; (-)) [Example 31, (−)-3-[4-[2-(1-Methyl-5-ethyl-7-oxo-3-propyl-6,7-dihydro-1H-pyrazolo[4,3-d]pyrimidin-6-yl)ethoxy]phenyl]-2-ethoxypropionic acid magnesium salt], the “Triglyceride Lowering (%)” value in the series with Swiss albino mice (dose 3 mg/kg) is on record as 84%. In series [1], the “AUC (0-∞)” value amounted to 65930 ng·h/mL; the AUC(0-t) (as a rule, exposure summed from dosing to a finite time, without extrapolation to infinity) stood at 64700 ng·h/mL; the Cmax (as a rule, the peak of the concentration-time curve) worked out at 19150 ng/mL; the Kel stood at 0.34 h⁻¹. In series [1], the time of peak concentration (Tmax) (as a rule, the time at which the peak concentration occurs) was 2.75 h and the t½ (as a rule, the time needed for the level to fall by half in the phase considered) is on record as 2.24 h.
